Laboratory results as given in the NIST ThermoML archive (doi:10.1021/je100610v).

Test: molar heat capacity at constant pressure; xn = mol fraction of the nth substance listed
Settings: 101 kPa, Liquid

ClCCCCCCCl [1,6-dichlorohexane] + CCCCCCC
molar heat capacity at constant pressure [J/K/mol]
Settings	x1 = 0.1033	x1 = 0.2005	x1 = 0.3004	x1 = 0.397	x1 = 0.5025	x1 = 0.5978	x1 = 0.7012	x1 = 0.7975	x1 = 0.8993	x1 = 1
293.15 K	224.18	225.58	226.93	228.73	230.53	232.22	233.79	235.58	237.46	239.21
294.15 K	224.47	225.71	227.22	229.08	230.89	232.55	234	235.86	237.73	239.5
295.15 K	224.85	226.27	227.61	229.51	231.34	232.94	234.33	236.23	238.1	239.69
296.15 K	225.28	226.73	227.98	229.89	231.84	233.25	234.73	236.51	238.39	240.02
297.15 K	225.7	227.04	228.31	230.27	231.98	233.48	235.05	236.81	238.57	240.35
298.15 K	226.02	227.35	228.65	230.41	232.13	233.77	235.36	237.1	238.92	240.64
299.15 K	226.42	227.84	228.96	230.75	232.24	234	235.65	237.33	239.06	240.85
300.15 K	226.82	228.08	229.21	231.06	232.49	234.22	236.05	237.68	239.39	241.15
301.15 K	227.16	228.49	229.61	231.57	232.94	234.6	236.34	238.04	239.79	241.46
302.15 K	227.48	228.83	230	231.8	233.35	234.96	236.63	238.29	240.08	241.8
303.15 K	227.86	229.13	230.36	232.08	233.73	235.31	236.93	238.61	240.37	242.06
304.15 K	228.19	229.46	230.7	232.56	234.04	235.48	237.2	238.86	240.64	242.34
305.15 K	228.57	229.83	230.91	232.74	234.33	235.88	237.53	239.21	240.92	242.62
306.15 K	228.88	230.1	231.36	233.13	234.4	236.03	237.84	239.44	241.2	242.83
307.15 K	229.3	230.51	231.65	233.51	235.07	236.5	238.18	239.76	241.48	243.21
308.15 K	229.71	230.91	232.08	233.76	235.33	236.85	238.49	240.12	241.83	243.49
309.15 K	230.05	231.19	232.35	234.03	235.45	237.17	238.74	240.37	242.06	243.73
310.15 K	230.4	231.55	232.73	234.35	235.77	237.52	239.07	240.64	242.36	244
311.15 K	230.86	231.97	233.11	234.88	236.41	237.89	239.43	241.08	242.73	244.35
312.15 K	231.16	232.33	233.45	235.01	236.75	238.16	239.72	241.32	243.02	244.68
313.15 K	231.55	232.68	233.79	235.43	236.93	238.39	240.06	241.64	243.28	244.91
